{
  "source": "patent US8236331B2",
  "about": "“Cosmetic cooling composition” (Coty Deutschland GmbH, priority 2004, dated 2012)",
  "origin": "cited, not measured here",
  "conditions": "WO 03/007909, no period of time specified",
  "data": [
    {"smiles": "CCCCCCCCCCCCCCCC(=O)OC", "note": "[methyl palmitate]", "values": [
      {"measurement": "cooling effect as described", "result": "long-lasting"}
    ]}
  ]
}
